Test system: subjects with Acute Migraines
Experiment: BHV3000-302 Phase 3 trial, acute treatment of migraine: efficacy
Format: in vivo, human
Conditions: Study 302; P<0.0001
Experimental: Clinical Trial—BHV3000-302: Phase 3: Double-Blind, Randomized, Placebo-Controlled, Safety and Efficacy Trial of BHV-3000 (Rimegepant) for the Acute Treatment of Migraine (ClinicalTrials.gov Identifier: NCT03237845) • A phase 3 clinical study was conducted with 1503 participants, as follows. […] Pain Freedom of rimegepant (75 mg tablet) compared with placebo in the acute treatment of migraine will be measured using the number of evaluable subjects that report no pain at 2 hours post-dose. [Time Frame: Two hours post dose] • Pain will be measured on a 4 point Likert scale (0=none, 1=mild, 2=moderate, 3=severe) • 2. Freedom from the most bothersome symptom (MBS) of rimegepant (75 mg tablet) compared with placebo will be measured using the number of evaluable subjects that report the absence of their MBS at 2 hours post-dose. […] The MBS (nausea, phonophobia or photophobia) will measured using a binary scale (0=absent, 1=present). […] [Time Frame: 2 hours-24 hours post-dose] • Sustained Pain Freedom as measured by a 4 point numeric rating scale (None, Mild, Moderate, Severe) • 2. […] [Time Frame: 2 hours post-dose] • Pain Relief as measured by a 4 point numeric rating scale (None, Mild, Moderate, Severe) • 5. […] [Time Frame: 2 hours-48 hours post-dose] • Sustained Pain Freedom as measured by a 4 point numeric rating scale (None, Mild, Moderate, Severe) • 8. […]

In the case of `N[C@@H]1c2cccnc2[C@H](OC(=O)N2CCC(n3c(=O)[nH]c4ncccc43)CC2)CC[C@H]1c1cccc(F)c1F` [Rimegepant, [(55,65,9R)-5-amino-6-(2,3-difluorophenyl)-6,7,8,9-tetrahydro-5H-cyclohepta[b]pyridin-9-yl]4-(2-oxo-3H-imidazo[4,5-b]pyridin-1-yl)piperidine-1-carboxylate], the “patients achieving normal function at 2 hours (functional disability) versus placebo” value is reported as “greater proportion”.
